Our source for the Ki, inhibition and melting point values is patent publication US6506756B2, “Substituted imidazoles as dual histamine H1 and H3 agonists or antagonists” (Schering Corporation, priority 2000, dated 2003).

One series has as its target T1, Histamine H1 receptor (Rattus norvegicus, UniProt P31390).
T1 construct: The tissue source was male Sprague-Dawley rat brain; tissue Rockland Corporation, Gilbertsville, Pa; host or cells: male Sprague-Dawley rat brain membranes
Briefly: H1-receptor binding assay (rat brain membranes, [3H]pyrilamine). The settings on record: for Ki: Cheng-Prusoff from IC50, HCl salt, read-out: H1 Ave Ki; for inhibition at 1 µg/mL: concentration not given (top test concentration 1 μg/ml), HCl salt. An excerpt: General Procedure for H1-Receptor Binding Assay
The procedure used was based on that disclosed in V.T. Tran et al, “Histamine H1 receptors identified in mammalian brain membranes with [H-3]mepyramine”, Proc. Natl. Acad. Sci. U.S.A. 75 (1978) 6290-6294.
I. Tissue Preparation Protocol for Histamine H1 Receptor Binding Assay:
1. The tissue source was male Sprague-Dawley rat brain. These were purchased, stripped and frozen (available from Rockland Corporation, Gilbertsville, Pa.). The buffer used was ice-cold 50 mM Tris-HCl, pH 7.5. (The pH was determined at 25° C.)
2. The brains were spread out on plastic wrap on the benchtop and allowed to thaw for 10-15 min. After this, everything was kept ice-cold.
3. Two brains were put in each 50 ml round bottom centrifuge tube and 25 ml of buffer was added. Then they were broken up with a Polytron (from Brinkmann Instruments, Westbury, N.Y.) equipped with a PT-10 tip at setting 6 for 30 sec.
4. The volume in the tube was brought up to 45 ml and mixed and the particulate material was centrifuged at 1000×g (3000 rpm, SS-34 rotor) for 10 min to remove nuclei and unbroken cells.
5. Pellets were discarded and the supernatants were centrifuged 10 min at 50,000×g (20,000 rpm, SS-34 rotor).
6. The high-speed pellets were resuspended in a volume of Tris buffer equal to the original ([…]), the contents of all tubes were pooled, and a sample was taken for BCA protein assay. The material was aliquotted, 45 ml per round-bottom tube, and the resuspension was recentrifuged. The yield of protein was approximately 20 mg/brain, so there was about 40 mg of protein per tube.
7. Pellets were frozen at −80° C.
1. FDCL and comparative compounds for assay were independently solubilized at 1mg/ml DMSO by vortexing, or if necessary by sonication. The first dilution, 100-fold, was made in 50 mM Tris-HCl, pH 7.5, at room temperature. The three or four subsequent ten-fold serial dilutions were made in 1% DMSO/50 mM Tris-HCl, pH 7.5. Drug solutions and assay plates were kept at room temperature during the course of the assay set up.
2. Test compounds were assayed at four or five concentrations: 1, 0.1, 0.01, 0.001, and 0.0001 μg/ml. Twenty μl of drug solution was pipeted into each of three wells.
3. [^3H]Pyrilamine was diluted approximately 2000-fold with ice-cold […] Tris-HCl, pH 7.5 (to a working concentration of 20-25 nM), and put on ice.
4. A frozen tissue pellet was thawed in a 25° C. water bath, resuspended in 50 mM Tris-HCl, pH 7.5, at 1.7-2 mg/ml by brief break-up on the Polytron, and put on ice.
5. Twenty μl of diluted [^3H]pyrilamine was added to each well.
6. One hundred fifty μl of tissue suspension was added to each well.
7. The top of the plate was covered and it was placed in a 25° C. shaking water bath (about 60 oscillations/min) for 30 min.
8. Samples were filtered on a Tomtec Mach 2 harvester (available from Tomtec Corporation, Orange, Conn.) through a GF/B filter mat (from Wallac, Inc., Gaithersburg, Md.) presoaked in 0.3% polyethylenimine. Each sample was thrice washed with ice-cold 50 mM Tris-HCl, pH 7.5 dried 20 sec on the Tomtec, and dried 3-4 min in a microwave oven on a paper towel. The filter was impregnated with MELTILEX brand wax scintillant (from Wallac Corporation) and counted on a Betaplate scintillation counter (from Wallac Corporation).
9. Specific binding was determined as the difference between total and nonspecific binding. The percent inhibition in the presence of inhibitor or standard was determined using the formula: [1-(sample binding-nonspecific binding)/specific binding]×100 For compounds that inhibit more than 50% at 1 μg/ml, an IC50 value was interpolated from proximate concentrations. […]

A further series has as its target T2, H3 receptors (Cavia porcellus, UniProt Q9JI35).
T2 construct: The source of the H3 receptors in this experiment was guinea pig brain; from tissue; host or cells: guinea pig brain membranes
Briefly: H3-receptor binding assay (guinea pig brain membranes, [3H]R-α-methyl histamine or [3H]Nα-methyl histamine). The settings on record: for Ki: HCl salt of the indicated compound, read-out: H3 Ave Ki; for inhibition at 2 µg/mL: final concentration 2 μg/ml, HCl salt. How it is done:
General Procedure for H3-Receptor Binding Assay
The source of the H3 receptors in this experiment was guinea pig brain. The animals weighed 400-600 g. The brain tissue was homogenized with a solution of 50 mM Tris, pH 7.5. The final concentration of tissue in the homogenization buffer was 10% w/v. The homogenates were centrifuged at 1,000×g for 10 min. in order to remove clumps of tissue and debris. The resulting supernatants were then centrifuged at 50,000×g for 20 min. in order to sediment the membranes, which were next washed three times in homogenization buffer (50,000×g for 20 min. each). The membranes were frozen and stored at −70° C. until needed.
All compounds to be tested were dissolved in DMSO and then diluted into the binding buffer (50 mM Tris, pH 7.5) such that the final concentration was 2 μg/ml with 0.1% DMSO. Membranes were then added (400 μg of protein) to the reaction tubes. The reaction was started by the addition of 3 nM [^3H]R-α-methyl histamine (8.8 Ci/mmol) or 3 nM [^3H]N^α-methyl histamine (80 Ci/mmol) and continued under incubation at 30° C. for 30 min. Bound ligand was separated from unbound ligand by filtration, and the amount of radioactive ligand bound to the membranes was quantitated by liquid scintillation spectrometry. All incubations were performed in duplicate and the standard error was always less than 10%. Compounds that inhibited more than 70% of the specific binding of radioactive ligand to the receptor were serially diluted to determine a Ki (nM). The results are given in the Table 1 for the HCl salt of the indicated compound.

The structures appear in SMILES notation. Structures can show the parent of a compound that is named as a salt.

T2 sequence (Q9JI35 whole entry): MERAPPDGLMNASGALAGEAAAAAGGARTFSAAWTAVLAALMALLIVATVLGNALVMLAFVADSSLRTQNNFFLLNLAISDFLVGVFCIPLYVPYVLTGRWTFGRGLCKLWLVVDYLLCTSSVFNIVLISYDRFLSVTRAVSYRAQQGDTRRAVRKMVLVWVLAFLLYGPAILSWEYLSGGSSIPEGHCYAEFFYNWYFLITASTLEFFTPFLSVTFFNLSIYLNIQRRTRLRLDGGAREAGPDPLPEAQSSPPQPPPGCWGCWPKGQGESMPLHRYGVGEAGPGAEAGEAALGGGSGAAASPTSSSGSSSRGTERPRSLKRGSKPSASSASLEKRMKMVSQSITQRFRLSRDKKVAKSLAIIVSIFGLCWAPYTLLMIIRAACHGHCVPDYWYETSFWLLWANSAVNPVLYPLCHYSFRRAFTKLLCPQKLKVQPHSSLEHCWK
T1 sequence (P31390 whole entry): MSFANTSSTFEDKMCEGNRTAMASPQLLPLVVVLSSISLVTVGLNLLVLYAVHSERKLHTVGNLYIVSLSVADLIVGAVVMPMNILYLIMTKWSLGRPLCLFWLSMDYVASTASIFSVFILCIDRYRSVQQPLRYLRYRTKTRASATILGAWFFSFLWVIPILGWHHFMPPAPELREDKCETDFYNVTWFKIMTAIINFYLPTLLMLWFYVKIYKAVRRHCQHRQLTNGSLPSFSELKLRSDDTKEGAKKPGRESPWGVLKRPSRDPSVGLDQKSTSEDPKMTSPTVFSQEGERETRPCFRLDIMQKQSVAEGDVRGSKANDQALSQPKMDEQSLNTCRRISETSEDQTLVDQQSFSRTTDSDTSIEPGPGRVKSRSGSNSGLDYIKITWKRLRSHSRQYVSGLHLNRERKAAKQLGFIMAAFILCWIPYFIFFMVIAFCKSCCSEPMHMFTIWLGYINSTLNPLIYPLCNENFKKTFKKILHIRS

In general, Ki refers to the dissociation constant of the complex between target and ligand, obtained from inhibition or displacement. Regarding `Clc1ccc2c(c1)CCc1cccnc1C2=C1CCN(Cc2c[nH]cn2)CC1`, the figures for the Ki on Histamine H1 receptor and on H3 receptors were 16 nM and 660 nM, respectively.
What is called inhibition is the drop in the measured response relative to a control, in per cent. For the molecule `Clc1ccc2c(c1)CCc1cccnc1C2N1CCN(CCc2c[nH]cn2)CC1` (centres unmarked), on Histamine H1 receptor, the Ki stood at 5.6 nM. Also, the inhibition at 2 µg/mL on H3 receptors worked out at 53%.
`O=C(CCc1c[nH]cn1)N1CCC(=C2c3ccc(Cl)cc3CCc3cccnc32)CC1`: the inhibition at 2 µg/mL at H3 receptors came out at 47%.
Take `Clc1ccc2c(c1)CCc1cccnc1C2=C1CCN(CCCc2c[nH]cn2)CC1`: the Ki amounted to 4.1 nM at Histamine H1 receptor and 260 nM on H3 receptors.
As for `Cn1cnc(CN2CCN(C3c4ccc(Cl)cc4CCc4cccnc43)CC2)c1` (centres unmarked), on Histamine H1 receptor, the Ki was 24 nM and the inhibition at 1 µg/mL was found to be 84%. For the same molecule, on H3 receptors, the inhibition at 2 µg/mL turned out to be 5%.
The corresponding values for `O=C(c1c[nH]cn1)N1CCN(C2c3ccc(Cl)cc3CCc3cccnc32)CC1` (centres unmarked) are 300 nM, 42% and 18%.
Consider `Clc1ccc2c(c1)CCc1cccnc1C2N1CCN(CCCCc2c[nH]cn2)CC1` (centres unmarked), for which the figures for the Ki at Histamine H1 receptor and on H3 receptors were 31.5 nM and 68.5 nM, respectively.
The corresponding values for `Clc1ccc2c(c1)CCc1cccnc1C2=C1CCN(CCCCc2c[nH]cn2)CC1` are 10.5 nM and 25.2 nM.
For `O=C(CCc1c[nH]cn1)N1CCN(C2c3ccc(Cl)cc3CCc3cccnc32)CC1` (centres unmarked), the Ki on Histamine H1 receptor turned out to be 200 nM. At H3 receptors, the inhibition at 2 µg/mL is 44%.
Turning to `Clc1ccc2c(c1)CCc1cccnc1C2N1CCN(CCCc2c[nH]cn2)CC1` (centres unmarked), the Ki on Histamine H1 receptor was 7.5 nM; at H3 receptors it was 173 nM.
Take `Clc1ccc2c(c1)CCc1cccnc1C2C1CCN(CCCCc2c[nH]cn2)CC1` (centres unmarked): the figures for the Ki on Histamine H1 receptor and on H3 receptors were 14.3 nM and 42 nM, respectively.
The corresponding values for `Clc1ccc2c(c1)CCc1cccnc1C2N1CCN(CCCCCc2c[nH]cn2)CC1` (centres unmarked) are 12.5 nM and 32 nM.
The matching figures for `Clc1ccc2c(c1)CCc1cccnc1C2C1CCN(CCCCCc2c[nH]cn2)CC1` (centres unmarked): 7 nM and 22.5 nM.
The corresponding values for `Clc1ccc2c(c1)CCc1cccnc1C2=C1CCN(CCCCCc2c[nH]cn2)CC1` are 2.5 nM and 26.5 nM.
Turning to `Clc1ccc2c(c1)CCc1cccnc1C2N1CCN(CCCCCCc2c[nH]cn2)CC1` (centres unmarked), the inhibition constant Ki at Histamine H1 receptor was determined as 8 nM; on H3 receptors, 41 nM.
On to `Clc1ccc2c(c1)CCc1cccnc1C2C1CCN(CCCCCCc2c[nH]cn2)CC1` (centres unmarked), for which the Ki was 5.5 nM at Histamine H1 receptor and 27.5 nM on H3 receptors.
The corresponding values for `Clc1ccc2c(c1)CCc1cccnc1C2=C1CCN(CCCCCCc2c[nH]cn2)CC1` are 12 nM and 33.5 nM.
On to `O=C(OCCCCc1c[nH]cn1)N1CCN(C2c3ccc(Cl)cc3CCc3cccnc32)CC1` (centres unmarked), for which the inhibition at 1 µg/mL at Histamine H1 receptor is 36%. Further, at H3 receptors, the Ki came to 148 nM.
With `O=C(NCCCCc1c[nH]cn1)N1CCN(C2c3ccc(Cl)cc3CCc3cccnc32)CC1` (centres unmarked), the Ki at Histamine H1 receptor was 250 nM; at H3 receptors, 47 nM.
What is called melting point is the temperature of the solid-liquid transition. `Clc1ccc2c(c1)CCc1cccnc1C2N1CCN(CCCCc2c[nH]cn2)CC1` (centres unmarked) (as salt: HCl) [Example 12, 8-Chloro-6,11-dihydro-11-[4-[4-(1H-imidazol4-yl)butyl]-1-piperazinyl]-5H-benzo[5,6]cyclohepta[1,2-b]pyridine]: the melting point was 165 to 170 °C (dec.).
Still for that read-out and setting: under `Clc1ccc2c(c1)CCc1cccnc1C2=C1CCN(CCCCCCc2c[nH]cn2)CC1` (as salt: hydrochloride) (hydrate or solvate) [Example 14, 8-Chloro-6,11-dihydro-11-[1-[6-(1H-imidazol-4-yl)hexyl]-4-piperidinylidene]-5H-benzo[5,6]cyclohepta[1,2-b]pyridine] stands 162 to 165 °C (dec.).
Same read-out and setting: under `Clc1ccc2c(c1)CCc1cccnc1C2C1CCN(CCCCCc2c[nH]cn2)CC1` (centres unmarked) (as salt: hydrochloride) [Example 13, 8-chloro-6,11-dihydro-11-[1-[5-(1H-imidazol-4-yl)pentyl]-4-piperidinyl]-5H-benzo[5,6]cyclohepta[1,2-b]pyridine] stands 164 to 170 °C (dec.); under `Clc1ccc2c(c1)CCc1cccnc1C2N1CCN(Cc2c[nH]cn2)CC1` (racemic) (as salt: HCl) (hydrate or solvate) [1-(8-Chloro-6,11-dihydro-5H-benzo[5,6]cyclohepta[1,2-b]pyridin-11-yl)-4-[(1H-imidazol-4-yl)-methyl]-piperazine], 190.5 to 192 °C (dec.).
`Clc1ccc2c(c1)CCc1cccnc1C2N1CCN(Cc2c[nH]cn2)CC1` (racemic) [1-(8-Chloro-6,11-dihydro-5H-benzo[5,6]cyclohepta[1,2-b]pyridin-11-yl)-4-[(1H-imidazol-4-yl)-methyl]-piperazine]: the Ki at Histamine H1 receptor was found to be 36.8 nM; on H3 receptors, 150 nM.
Regarding `Clc1ccc2c(c1)CCc1cccnc1C2C1CCN(Cc2c[nH]cn2)CC1` (single isomer, unassigned) [drawing 60], the Ki on Histamine H1 receptor amounted to 1.2 nM. Further, the inhibition at 2 µg/mL at H3 receptors is 15%.
Regarding `Clc1ccc2c(c1)CCc1cccnc1C2C1CCN(Cc2c[nH]cn2)CC1` (single isomer, unassigned) [drawing 61], the Ki on Histamine H1 receptor was 182 nM; at H3 receptors, 91 nM.
Turning to `Clc1ccc2c(c1)CCc1cccnc1C2N1CCN(Cc2c[nH]cn2)CC1` (single isomer, unassigned; (+)) [(+)-(8-Chloro-6,11-dihydro-5H-benzo[5,6]cyclohepta[1,2-b]pyridin-11-yl)-4-[(1H-imidazol-4-yl)methyl]-piperazine], the Ki stood at 4.6 nM at Histamine H1 receptor and 121 nM at H3 receptors.
The matching figures for `Clc1ccc2c(c1)CCc1cccnc1C2N1CCN(Cc2c[nH]cn2)CC1` (single isomer, unassigned; (-)) [(−)-(8-Chloro-6,11-dihydro-5H-benzo[5,6]cyclohepta[1,2-b]pyridin-11-yl)-4-[(1H-imidazol-4-yl)methyl]-piperazine]: 15.4 nM and 133 nM.
